Laboratory results published in patent US7205302B2, “Heterocyclic compound derivatives and medicines” (Nippon Shinyaku Co., Ltd., priority 2001, dated 2007).
Structures can show the parent of a compound that is named as a salt.

Columns and labels:
mice = assay: Single-dose toxicity test in mice; type: in vivo; conditions: oral, 10, 30 or 100 mg/kg
Method: Singl-Dose Toxicity Test in Mice
The compound of Example 42 was orally administered to mice (including three mice in a group) at a dose of 10, 30 or 100 mg/kg.

[1] = system: ADP-induced platelet aggregation in human PRP; assay: Human platelet aggregation inhibition test; type: cell-based; conditions: ADP 1×10^−5 M
Method: Human Platelet Aggregation Inhibition Test
Blood collected from healthy human volunteers into aqueous trisodium citrate solution was centrifuged at 200×g for 10 minutes and the upper layer was recovered to obtain platelet-rich plasma (PRP). The residual blood containing trisodium citrate added therein was centrifuged at 1500×g for 10 minutes and the supernatant was collected as platelet-poor plasma (PPP). The number of platelets in the PRP was adjusted to about 300,000/μl by PPP. Platelet aggregation was measured by an aggregometer. 180 μl of PRP was added to cuvettes and incubated at 37° C. for one minute, and then 10 μl of test compound solution (prepared by dissolving a test compound with a 1.5-fold mole of a sodium hydroxide solution and diluting with water) was added and the mixture was further incubated for 2 minutes. Then, 10 μl of aqueous adenosine diphosphate (ADP) solution was added to adjust the final concentration as 1×10^−5 M and platelet aggregation was induced and observed for 7 minutes. Inhibition percentage of aggregation was calculated from the percentage of aggregation upon the addition of the test compound to the percentage of aggregation upon the addition of water in place of the test compound solution (control).

[2] = biological target: T1, PGI2 receptor (human platelet membrane, 3H-Iloprost binding) (Homo sapiens, UniProt P43119); assay: 3H-Iloprost binding inhibition test to human platelet membrane; conditions: compound 1 μM, 5 nM 3H-Iloprost, 37° C., 10 minutes
T1 construct: Human platelet membrane of 100 μg protein was suspended; from tissue; host or cells: human platelet membrane
Method: ^3H-Iloprost Binding Inhibition Test to Human Platelet Membrane
The platelet membrane was collected on a glass filter and its radioactivity was measured after washing four times with 50 mM Tris-HCl buffer.

T1 sequence (P43119 whole entry): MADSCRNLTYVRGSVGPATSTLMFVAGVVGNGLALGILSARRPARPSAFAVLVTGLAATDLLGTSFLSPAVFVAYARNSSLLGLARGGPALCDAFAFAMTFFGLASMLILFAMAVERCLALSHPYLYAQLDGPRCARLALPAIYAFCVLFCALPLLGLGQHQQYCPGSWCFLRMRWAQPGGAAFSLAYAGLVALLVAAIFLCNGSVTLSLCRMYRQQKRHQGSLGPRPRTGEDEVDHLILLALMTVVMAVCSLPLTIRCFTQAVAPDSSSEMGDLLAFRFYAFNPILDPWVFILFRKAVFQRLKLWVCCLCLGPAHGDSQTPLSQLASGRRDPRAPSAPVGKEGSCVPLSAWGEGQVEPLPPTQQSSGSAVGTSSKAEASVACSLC

Row | SMILES | deaths after single oral dose (mice) | IC50 [1] [nM] | melting point [°C] | inhibition of binding of 3H-Iloprost [2] [%]
1 | CC(C)N(CCCCOCC(=O)O)c1cnc(-c2ccccc2)c(-c2ccccc2)n1 [Example 42, 2-{4-[N-(5,6-diphenylpyrazin-2-yl)-N-isopropylamino]butyloxy}acetic acid] | no deaths | 200 | – | –
2 | Cc1ccc(-c2nnc(N(CCCCOCC(=O)O)C(C)C)nc2-c2ccc(C)cc2)cc1 [Example 48, 2-{4-[N-(5,6-di-p-tolyl-1,2,4-triazin-3-yl)-N-isopropylamino]butyloxy}acetic acid] | – | 400 | 119 to 121 | –
3 | CN(CCCCOCC(=O)O)c1cnc(-c2ccccc2)c(-c2ccccc2)n1 [Example 64, 2-{4-[N-(5,6-diphenylpyrazin-2-yl)-N-methylamino]butyloxy}acetic acid] | – | – | – | 85
4 | CN(CCCCOCC(=O)O)c1c[n+]([O-])c(-c2ccccc2)c(-c2ccccc2)n1 [Example 73, 2,3-diphenyl-5-{N-[4-(carboxymethoxy)butyl]-N-methylamino}pyrazine 1-oxide] | – | 200 | 185 to 190 | –
5 | Cc1ccc(-c2cnc(N(C)CCCCOCC(=O)O)nc2-c2ccc(C)cc2)cc1 [Example 75, 2-{4-[N-(4,5-di-p-tolylpyrimidin-2-yl)-N-methylamino]butyloxy}acetic acid] | – | 200 | – | –
6 | CC(C)N(CCCCSCC(=O)O)c1cnc(-c2ccccc2)c(-c2ccccc2)n1 [Example 78, 2-{4-[N-(5,6-diphenylpyrazin-2-yl)-N-isopropylamino]butylthio]acetic acid sodium salt] | – | 300 | – | –
